# Reference: patent US20240207373A1, “CYCLIC PEPTIDES FROM THE C-TERMINUS OF ACETYLCHOLINESTERASE FOR TREATMENT OF SKIN DISORDERS AND FOR COSMETICAL USE” (priority 2020, published 2024)
# Where a SMILES comes first, the peptide text is derived from it. Where no end group is shown, it is not given here.
# Assays:
# HaCaT cell line = test: Cell viability (cell toxicity) in HaCaT cell line; type: cell-based, human; conditions: FIG. 3A
# Description: The inventors next examined the ability of the acetylcholinesterase-derived peptides, T30 and T15, to induce proliferation of the HaCaT cell line and also tested cell viability to determine cell toxicity of NBP-14, T15 and T30 to the HaCaT cell line.
# [1] = tested on: keratinocyte cell line HaCaTs; test: Intracellular calcium influx in keratinocyte cell line HaCaTs; type: cell-based, human; conditions: in presence of T30, FIG. 2
# Description: As described in the examples, the inventors performed intracellular calcium imaging and cell proliferation assays on the keratinocyte cell line, HaCaTs, a widely used and characterized model for human keratinocytes.
# The inventors examined the ability of the acetylcholinesterase-derived linear peptides, T30 and T15, and the cyclic peptide NBP-14, to induce intracellular calcium influx into the keratinocyte cell line, and the results are shown in FIG. 2.
Molecule,cell viability / cytotoxic effects (HaCaT cell line),inhibition of T30-induced intracellular calcium influx [1]
CSCC[C@@H]1NC(=O)[C@H](Cc2ccc(O)cc2)NC(=O)[C@H](CO)NC(=O)[C@H](CO)NC(=O)[C@H](Cc2c[nH]c3ccccc23)NC(=O)[C@H](CCCNC(=N)N)NC(=O)[C@H](Cc2c[nH]cn2)NC(=O)[C@H](Cc2ccccc2)NC(=O)[C@H](CCC(=O)O)NC(=O)[C@H](C)NC(=O)[C@H](CCCCN)NC(=O)[C@H](Cc2c[nH]c3ccccc23)NC(=O)[C@H](Cc2c[nH]cn2)NC(=O)[C@H](C(C)C)NC1=O [NBP-14] (cyclo(AEFHRWSSYMVHWK)),do not show induced significant cytotoxic effects,significantly inhibit the effects of T30
KAEFHRWSSYMVHWKNQFDHYSKQDRCSDL [T30],do not show induced significant cytotoxic effects,
NQFDHYSKQDRCSDL [T15],do not show induced significant cytotoxic effects,
